Laboratory results as given in ChEMBL document CHEMBL1201862, “PubChem BioAssay data set” (2004).
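1) Cells in 96-well plates. 2) Compound, 48 h, 5 concentrations. 3) Linear interpolation between surrounding doses. 4) Unreached endpoint = highest concentration. At the GI50, growth is halved.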 Active and inactive are the calls of the source. Cut-off read from the data, not from the text of the source: active = GI50 up to about 1.1 µM and inactive = higher.

Assays:
Test in all cases: NCI anticancer screen, dose series, 48 h
NCI-H522 = test system: NCI-H522
HOP-62 = test system: HOP-62
NCI/ADR-RES = test system: NCI/ADR-RES
SNB-19 = test system: SNB-19
Hs-578T = test system: Hs-578T
DU-145 = test system: DU-145
A549 = test system: A549
SF-268 = test system: SF-268
MDA-N = test system: MDA-N
A498 = test system: A498
MDA-MB-231 = test system: MDA-MB-231
SK-OV-3 = test system: SK-OV-3
CCRF-CEM = test system: CCRF-CEM
OVCAR-4 = test system: OVCAR-4
BT-549 = test system: BT-549
UACC-62 = test system: UACC-62
IGROV-1 = test system: IGROV-1
MDA-MB-435 = test system: MDA-MB-435
OVCAR-8 = test system: OVCAR-8
UACC-257 = test system: UACC-257

| SMILES | GI50 (NCI-H522) | GI50 (HOP-62) | GI50 (NCI/ADR-RES) | GI50 (SNB-19) | GI50 (Hs-578T) | GI50 (DU-145) | GI50 (A549) | GI50 (SF-268) | GI50 (MDA-N) | GI50 (A498) | GI50 (MDA-MB-231) | GI50 (SK-OV-3) | GI50 (CCRF-CEM) | GI50 (OVCAR-4) | GI50 (BT-549) | GI50 (UACC-62) | GI50 (IGROV-1) | GI50 (MDA-MB-435) | GI50 (OVCAR-8) | GI50 (UACC-257) |
| --- | --- | --- | --- | --- | --- | --- | --- | --- | --- | --- | --- | --- | --- | --- | --- | --- | --- | --- | --- | --- |
| O=C(O)c1cc(Cl)cc(Cc2cc(Cl)cc(C(=O)O)c2O)c1O | > 100 µM (inactive) | > 100 µM (inactive) | > 100 µM (inactive) | > 100 µM (inactive) | > 100 µM (inactive) | > 100 µM (inactive) | > 100 µM (inactive) | > 100 µM (inactive) | > 100 µM (inactive) | > 100 µM (inactive) | > 100 µM (inactive) | > 100 µM (inactive) | > 100 µM (inactive) | > 100 µM (inactive) | > 100 µM (inactive) | > 100 µM (inactive) | > 100 µM (inactive) | > 100 µM (inactive) | > 100 µM (inactive) |  |
| c1ccc(-c2cnc(-c3ccc(-c4ncc(-c5ccccc5)o4)cc3)o2)cc1 | > 100 µM (inactive) | > 100 µM (inactive) | > 100 µM (inactive) | > 100 µM (inactive) | > 100 µM (inactive) | > 100 µM (inactive) | > 100 µM (inactive) | > 100 µM (inactive) | > 100 µM (inactive) | > 100 µM (inactive) | > 100 µM (inactive) | > 100 µM (inactive) | > 100 µM (inactive) | > 100 µM (inactive) | > 100 µM (inactive) | > 100 µM (inactive) | > 100 µM (inactive) | > 100 µM (inactive) | > 100 µM (inactive) | > 100 µM (inactive) |
| CC(C)(Oc1ccc(-c2cccc3ccccc23)cc1)C(=O)O | > 100 µM (inactive) | > 100 µM (inactive) | > 100 µM (inactive) | > 100 µM (inactive) | > 100 µM (inactive) | > 100 µM (inactive) | 59.6 µM (inactive) | > 100 µM (inactive) | > 100 µM (inactive) | > 100 µM (inactive) | > 100 µM (inactive) | > 100 µM (inactive) | 6.22 µM (inactive) | > 100 µM (inactive) | > 100 µM (inactive) | > 100 µM (inactive) | > 100 µM (inactive) | > 100 µM (inactive) | > 100 µM (inactive) | > 100 µM (inactive) |
| CC(C)OC(=O)c1ccc(NCc2cc(O)ccc2O)cc1 | 0.21 µM (active) | 4.98 µM (inactive) | 1.95 µM (inactive) | 3.3 µM (inactive) | 2.04 µM (inactive) | 6.11 µM (inactive) | 7.48 µM (inactive) | 4.07 µM (inactive) | 2.52 µM (inactive) | 22.5 µM (inactive) | 2.2 µM (inactive) | 17.3 µM (inactive) | 0.27 µM (active) | 5.05 µM (inactive) | 2.38 µM (inactive) | 10.6 µM (inactive) | 3.45 µM (inactive) | 2.06 µM (inactive) | 2.51 µM (inactive) | 10.3 µM (inactive) |
| CN1C(=O)c2c(ccc3c2OCO3)C2C(O)Cc3cc4c(cc3C21)OCO4 (stereo unspecified) | 2.87 µM (inactive) |  | 3.03 µM (inactive) | 3.21 µM (inactive) | 5.26 µM (inactive) | 3.65 µM (inactive) | 5.96 µM (inactive) | 8.75 µM (inactive) | 1.91 µM (inactive) | 3.18 µM (inactive) | 3.38 µM (inactive) | 2.98 µM (inactive) | 3.37 µM (inactive) | > 100 µM (inactive) | 13.8 µM (inactive) | 3.36 µM (inactive) | 2.36 µM (inactive) | 1.61 µM (inactive) | 5.11 µM (inactive) |  |
| COC(=O)C1=C(OC)[C@H]2C#C/C=C\C#C[C@@H]3Nc4c(cc(O)c5c4C(=O)c4ccccc4C5=O)[C@]24O[C@@]34[C@H]1C | < 0.01 µM (active) | < 0.01 µM (active) | < 0.01 µM (active) | < 0.01 µM (active) | 0.173 µM (active) | < 0.01 µM (active) | < 0.01 µM (active) | < 0.01 µM (active) | < 0.01 µM (active) | < 0.01 µM (active) | < 0.01 µM (active) | < 0.01 µM (active) | < 0.01 µM (active) | 0.0519 µM (active) | < 0.01 µM (active) | < 0.01 µM (active) | < 0.0127 µM (active) | < 0.01 µM (active) | < 0.01 µM (active) | < 0.01 µM (active) |
| Cc1nc(C)c(N2CCN([N+](=O)[O-])CC2)c(O)n1 | > 100 µM (inactive) | > 100 µM (inactive) | > 100 µM (inactive) | > 100 µM (inactive) | > 100 µM (inactive) | > 100 µM (inactive) | > 100 µM (inactive) | > 100 µM (inactive) | > 100 µM (inactive) | > 100 µM (inactive) | > 100 µM (inactive) | > 100 µM (inactive) | > 100 µM (inactive) | > 100 µM (inactive) | > 100 µM (inactive) | > 100 µM (inactive) | > 100 µM (inactive) | > 100 µM (inactive) | > 100 µM (inactive) | > 100 µM (inactive) |
| O=C1CCC2C(O)c3cc4c(cc3C(c3ccc5c(c3)OCO5)N12)OCO4 (stereo unspecified) | 89.5 µM (inactive) | 25 µM (inactive) | 94 µM (inactive) | 29.2 µM (inactive) | 24.4 µM (inactive) | > 100 µM (inactive) | > 100 µM (inactive) | 19.2 µM (inactive) | > 100 µM (inactive) | > 100 µM (inactive) | > 100 µM (inactive) | 40 µM (inactive) | > 100 µM (inactive) | > 100 µM (inactive) | 47.6 µM (inactive) | > 100 µM (inactive) | > 100 µM (inactive) | > 100 µM (inactive) | 35.6 µM (inactive) | > 100 µM (inactive) |
| COC(=O)/C=C\C(C#N)(C#N)/N=C/c1ccsc1 | 0.662 µM (active) | 16.9 µM (inactive) | 2.54 µM (inactive) | 14.5 µM (inactive) | 10.6 µM (inactive) | 8.05 µM (inactive) | 17.7 µM (inactive) | 15.2 µM (inactive) | 3.83 µM (inactive) | 18.8 µM (inactive) | 5.73 µM (inactive) | 17.2 µM (inactive) | 0.216 µM (active) | 18.5 µM (inactive) | 1.84 µM (inactive) | 4.8 µM (inactive) | 9.08 µM (inactive) | 5.4 µM (inactive) | 4.19 µM (inactive) | 4.45 µM (inactive) |
| C[N+](C)(CCCn1ccnc1[N+](=O)[O-])CCCn1ccnc1[N+](=O)[O-] | > 100 µM (inactive) | > 100 µM (inactive) | > 100 µM (inactive) |  | > 100 µM (inactive) | > 100 µM (inactive) | > 100 µM (inactive) | > 100 µM (inactive) | > 100 µM (inactive) | > 100 µM (inactive) | > 100 µM (inactive) | > 100 µM (inactive) | > 100 µM (inactive) | > 100 µM (inactive) | 69.8 µM (inactive) | > 100 µM (inactive) | > 100 µM (inactive) | > 100 µM (inactive) | > 100 µM (inactive) | > 100 µM (inactive) |
